Experimental data taken from patent US12083084B2, “Method for enhancing energy production and metabolism in cells” (REPLICON HEALTH OY, priority 2013, dated 2024).

Key:
[1] = tested on: ethanol-dosed gastric cells; details: in vitro; cited from earlier work
peripheral leukocytes = assay: Gene expression from in vivo blood samples (TRAC); parameters: species or system human; details: for AOX1 gene expression, Change % / CYP1A2 gene expression, Change % / CYP2B6 gene expression, Change % / CYP2C9 gene expression, Change % / CYP3A4 gene expression, Change % / G6PD gene expression, Change % / GPD2 gene expression, Change % / GRHPR gene expression, Change % / HO-1 gene expression, Change % / MT-CO1 gene expression, Change % / MT-CYB gene expression, Change % / PGC-1a gene expression, Change %: S1 and S9 combined, vs control
Procedure: In the above 4.5 day experiment samples of peripheral leukocytes were collected from S1 and S9 in fasting condition (0 h), and also 1 hour (1 h) after taking 75 grams of glucose (Glutole, Biofile Pharma, 330 ml) for glucose tolerance test. Additional gene expression measurement was done from a separate 12 hour treatment for S1 and S9. In the 12 h test only two last doses of DGAcs were administered, first dose 12 h earlier than the blood sample, and the last/second dose 2.5 h earlier in the same morning (like in 4.5 day experiment). For the statin group, S10 and S11, only one gene expression measurement was done in two hours after the fasting blood sample. Leukocytes were immediately separated from blood samples, and after separation immediately lysed by stop solution and stored in freezer according to instructions by the service provider.
For S1 and S9 there were altogether 4 measurement points for gene expression, and only 3 repeats for each measurement. Results are presented in Table 6 below; changes of gene expressions compared to the control from peripheral leukocytes are presented. The Gene Expression analyses was conducted using TracTechnology by PlexPress Ltd in Helsinki. The TRAC data presented in Table 6 has been generated according to process instructions with quality tested instruments and reagents. PlexPress Quality Management System is set up according to the ISO 9001 standard. P-values are from t-distribution of a one sided test of deviation from control average, and are presented only when below 10%.

[2] = Extended 8 week administration and 2 week control period for S4 (Example 2.2); format: in vivo, human; details: for AST/ALT / S-Bil / S-Uraat / fS-Fe / fS-Trigly: fasting blood
Procedure: For Subject 4 (S4) in Example 2.1, the 4 day test period was prolonged by 8 weeks with reduced, only once a day 5 mg/kg/day administration before going to bed. Additionally in order to have an understanding that the results in the 8 week test were due to the administration of the Innovation, an additional negative control measurement without DGAcs after 2 weeks and 2 days was made (+2 days due to alleviating doses see below). The idea was to see, if the beneficial effects seen in 4 day treatment prevailed in longer term (positive control).

[3] = 12 hour + 0 h test (two doses, fasting)
[4] = 12 hour + 1 h test (1 h after 75 g glucose)
[5] = 4.5 day + 1 h test (1 h after 75 g glucose)
[6] = S4, +2 weeks follow up after stopping DGAcs (negative control), change from previous observation (+8 weeks)
[7] = S4, +2 weeks follow up after stopping DGAcs (negative control)
[8] = S4, +8 weeks 5 mg/kg once a day (positive control), change from previous observation (4 day)
[9] = S4, +8 weeks 5 mg/kg once a day (positive control)

O=C(O)[C@H](O)CO [DGA, D-glyceric acid]
viability of ethanol-dosed gastric cells [1]: increase viability

O.O.O=C([O-])[C@H](O)CO.O=C([O-])[C@H](O)CO.[Ca+2] [DGAcs, D-glyceric acid, calcium salt dehydrate]
AOX1 gene expression, Change % (peripheral leukocytes; [3]): −6%
CYP1A2 gene expression, Change % (peripheral leukocytes; [3]): 100%
CYP2B6 gene expression, Change % (peripheral leukocytes; [3]): −14%
CYP2C9 gene expression, Change % (peripheral leukocytes; [3]): 8%
CYP3A4 gene expression, Change % (peripheral leukocytes; [3]): −17%
G6PD gene expression, Change % (peripheral leukocytes; [3]): 3%
GPD2 gene expression, Change % (peripheral leukocytes; [3]): 24%
GRHPR gene expression, Change % (peripheral leukocytes; [3]): −26%
HO-1 gene expression, Change % (peripheral leukocytes; [3]): −31%
MT-CO1 gene expression, Change % (peripheral leukocytes; [3]): −10%
MT-CYB gene expression, Change % (peripheral leukocytes; [3]): −2%
PGC-1a gene expression, Change % (peripheral leukocytes; [3]): −3%
AOX1 gene expression, Change % (peripheral leukocytes; [4]): 8%
CYP2B6 gene expression, Change % (peripheral leukocytes; [4]): 8%
CYP2C9 gene expression, Change % (peripheral leukocytes; [4]): 18%
CYP3A4 gene expression, Change % (peripheral leukocytes; [4]): −45%
G6PD gene expression, Change % (peripheral leukocytes; [4]): 18%
GPD2 gene expression, Change % (peripheral leukocytes; [4]): 23%
GRHPR gene expression, Change % (peripheral leukocytes; [4]): 6%
HO-1 gene expression, Change % (peripheral leukocytes; [4]): −54%
MT-CO1 gene expression, Change % (peripheral leukocytes; [4]): 4%
MT-CYB gene expression, Change % (peripheral leukocytes; [4]): 2%
PGC-1a gene expression, Change % (peripheral leukocytes; [4]): −21%
CYP1A2 gene expression, Change % (peripheral leukocytes; 4.5 day + 0 h test (fasting)): 62%
CYP2B6 gene expression, Change % (peripheral leukocytes; 4.5 day + 0 h test (fasting)): 73%
CYP2C9 gene expression, Change % (peripheral leukocytes; 4.5 day + 0 h test (fasting)): 0%
CYP3A4 gene expression, Change % (peripheral leukocytes; 4.5 day + 0 h test (fasting)): 67%
G6PD gene expression, Change % (peripheral leukocytes; 4.5 day + 0 h test (fasting)): 9%
GPD2 gene expression, Change % (peripheral leukocytes; 4.5 day + 0 h test (fasting)): 31%
GRHPR gene expression, Change % (peripheral leukocytes; 4.5 day + 0 h test (fasting)): 70%
HO-1 gene expression, Change % (peripheral leukocytes; 4.5 day + 0 h test (fasting)): 82%
MT-CO1 gene expression, Change % (peripheral leukocytes; 4.5 day + 0 h test (fasting)): 24%
MT-CYB gene expression, Change % (peripheral leukocytes; 4.5 day + 0 h test (fasting)): 22%
CYP1A2 gene expression, Change % (peripheral leukocytes; [5]): 14%
CYP2B6 gene expression, Change % (peripheral leukocytes; [5]): 147%
CYP2C9 gene expression, Change % (peripheral leukocytes; [5]): 46%
CYP3A4 gene expression, Change % (peripheral leukocytes; [5]): 69%
G6PD gene expression, Change % (peripheral leukocytes; [5]): −13%
GPD2 gene expression, Change % (peripheral leukocytes; [5]): 0%
GRHPR gene expression, Change % (peripheral leukocytes; [5]): 100%
HO-1 gene expression, Change % (peripheral leukocytes; [5]): 110%
MT-CO1 gene expression, Change % (peripheral leukocytes; [5]): 23%
MT-CYB gene expression, Change % (peripheral leukocytes; [5]): 21%
PGC-1a gene expression, Change % (peripheral leukocytes; [5]): 30%
CYP3A4 gene expression vs control (peripheral leukocytes; S10, statin group): statistically significantly up regulated
increase in HO-1 gene expression (peripheral leukocytes; S10, statin group (halved dose of Simvastatin), 4.5 day): 160%
AOX1 gene expression increased by (peripheral leukocytes; S10, statin group, 4.5 day panel): 56%
S-Asat, change [2, 6]: 24.1%
S-Bil, change [2, 6]: 41.7%
S-Uraat, change [2, 6]: 19.4%
S-alat, change [2, 6]: −35.1%
fS-Fe, change [2, 6]: −3.2%
fS-Trigly, change [2, 6]: −17.8%
AST/ALT [2, 7]: 1.44
S-Bil [2, 7]: 10.2
S-Uraat [2, 7]: 295
fS-Fe [2, 7]: 15.1
fS-Trigly [2, 7]: 1.11
S-Asat, change [2, 8]: 31.8%
S-Bil, change [2, 8]: −25.8%
S-Uraat, change [2, 8]: 0.4%
S-alat, change [2, 8]: 85.0%
fS-Fe, change [2, 8]: −22.8%
fS-Trigly, change [2, 8]: −22.0%
AST/ALT [2, 9]: 0.78
S-Bil [2, 9]: 7.2
S-Uraat [2, 9]: 247
fS-Fe [2, 9]: 15.6
fS-Trigly [2, 9]: 1.35
time without dose until withdrawal symptoms started ([2]; S4, after 8 weeks of 5 mg/kg/day): 36 h
withdrawal symptoms after stopping administration ([2]; S4, after 8 weeks of 5 mg/kg/day, bad feeling inside the head, dizziness, uneasiness): very clear but not severe
